Test results reported in patent US10675267B2, “Methods for detection and eradication of myeloid leukemia stem cells” (priority 2015, dated 2020).
“Also recorded” adds a separate entry of the source.

System: AML LSC (CD34+ cells from AML primary samples)
Assay: SL/M2 stromal co-culture with colony formation (survival) and replating (self-renewal) assays, AML
Assay type: cell-based, human
Method: In hypothesis-driven experiments, the splicing modulatory compound 17S-FD-895 was tested to determine efficacy in altering splicing activity in cell lines, and to evaluate effects on AML LSC survival and self-renewal capacity in humanized bone marrow stromal co-cultures and in PRIMAGRAFT™ AML LSC models. Cell culture experiments were performed using 293T and sAML (MOLM-13) cell lines, and SL and M2 bone marrow stromal cell lines. Animal studies were performed using immunocompromised Rag2−/−γc−/−[20] or NOD/SCID-IL2RG mice (Jackson Laboratory, Bar Harbor, Me.). Primary AML and normal control samples were used in in vitro hematopoietic stem and progenitor assays after bone marrow stromal co-culture and treatment with splicing modulatory compounds (FD-895 or 17S-FD-895) or vehicle control (DMSO). Colony formation potential and self-renewal capacity were assessed by counting colony numbers (survival) after two weeks of growth in semi-solid (methylcellulose) media, and subsequent replating capacity (self-renewal) was assessed after transfer to fresh methylcellulose for an additional two weeks of culture. Three primary AML samples were utilized to establish PRIMAGRAFT™ models in immunocompromised mice, and mice engrafted with cells from two of these models (AML-37 and AML-08) were treated with 17S-FD-895 or vehicle (DMSO) to evaluate changes in AML LSC survival and self-renewal capacity in vivo. Data were collected by flow cytometry and qRT-PCR analysis of CD34-selected human LSC-enriched cells from engrafted mice.
Bone marrow SL/M2 monolayers were established from freshly inactivated (irradiated) cells and then human CD34^+ cells selected from AML primary samples (n=8) and normal controls (CD34^+ cells from cord blood, CB, n=6; or aged bone marrow, n=6) were added. Survival and self-renewal of the CD34+ cells were investigated by methylcellulose-based colony and replating assays. Two SF3B1-targeted splicing modulators, FD-895 or 17S-FD-895, were added at the initiation of co-culture at concentrations ranging from 0.1 to 10 μM.
Mouse bone marrow stromal cell lines (SL and M2 mycoplasma-free authenticated cells obtained from ATCC) expressing human interleukin-3 (IL-3), stem cell factor (SCF) and granulocyte-colony stimulating factor (G-CSF), which support erythroid and myeloid cell expansion and differentiation, were maintained under standard culture conditions, as previously described. Briefly, SL cells were grown in complete medium containing DMEM (Corning), 10% FBS, 1% Glutamax, and 1% penicillin-streptomycin (Life Technologies), while M2 cells were grown in complete medium containing RPMI, 10% FBS, 1% Glutamax, and 1% penicillin-streptomycin (all from Life Technologies). Every four passages, cells were selected by addition of G418 and hygromycin to the culture media for one passage (3-4 days), to maintain human cytokine expression. All cell lines were maintained in T-25 or T-75 culture flasks and were passaged at dilutions of 1:5-1:10 every 2-4 days. Low passage aliquots of cells were thawed every two months to ensure consistency of experiments.
As previously described (Goff et al., 2013), humanized bone marrow SL/M2 monolayers were inactivated (irradiated) and then human CD34^+ cells selected from AML primary samples and normal controls were added for two weeks of co-culture, followed by methylcellulose-based colony and replating assays. FD-895 or 17S-FD-895 were added at the initiation of co-culture, with DMSO as a vehicle control.
Mouse bone marrow stromal cell lines (SL and M2 mycoplasma-free authenticated cells obtained from ATCC) expressing human interleukin-3 (IL-3), stem cell factor (SCF) and granulocyte-colony stimulating factor (G-CSF), which support erythroid and myeloid cell expansion and differentiation (Hogge et al., 1996), were maintained under standard culture conditions, as previously described (Goff et al., 2013). […]

[1] = two weeks SL/M2 co-culture, 0.1-10 μM, versus DMSO

CC[C@H](OC)[C@@H](C)[C@H]1O[C@@H]1[C@@H](O)[C@H](C)/C=C/C=C(\C)[C@H]1OC(=O)C[C@H](O)CC[C@@](C)(O)[C@@H](OC(C)=O)/C=C/[C@@H]1C (stereo in doubt) [Formula 17S-FD-895, 17S-FD-895]
AML LSC survival compared with FD-895 (1 μM dose, p=0.020): significantly lower
LSC survival and self-renewal, validation cohort (1 μM, separate patient samples, versus normal controls): Reduced AML LSC survival and self-renewal compared to normal controls
AML LSC self-renewal compared with FD-895 (0.1 and 1 μM doses, p=0.001): significantly lower
functional potency compared with FD-895 (LSC assays): greater functional potency than FD-895
therapeutic index (AML LSC versus normal HSPC) (LSC assays, stromal co-culture): favorable therapeutic index
AML LSC self-renewal (colony replating) [1]: dose-dependent reduction; also recorded: reduced AML LSC self-renewal
AML LSC survival (colony formation) [1]: dose-dependent reduction; also recorded: reduced AML LSC survival
